# ChEMBL document CHEMBL3045129, “Synthesis and anti-inflammatory activity of some pyrazole derivatives” (Med Chem Res, 2012)
# Legend:
# Rattus norvegicus [1] = assay: Anti-inflammatory activity inRattus norvegicus albino (rat) assessed as inhibition of carrageenan-induced paw edema at 100 mg/kg, po administered 2 hr prior challenge measured after 1 hr post challenge; assay type: functional
# Rattus norvegicus [2] = assay: Anti-inflammatory activity inRattus norvegicus albino (rat) assessed as inhibition of carrageenan-induced paw edema at 100 mg/kg, po administered 1 hr prior challenge measured after 1 hr post challenge; assay type: functional
# Rattus norvegicus [3] = assay: Anti-inflammatory activity inRattus norvegicus albino (rat) assessed as inhibition of carrageenan-induced paw edema at 100 mg/kg, po administered 3 hr prior challenge measured after 1 hr post challenge; assay type: functional
# Rattus norvegicus [4] = assay: Toxicity inRattus norvegicus albino (rat) assessed as ulcerogenicity at 100 mg/kg, po measured after 1 hr; assay type: organism-based; set-up: dose 100 mg/kg, route oral; conditions: in vivo
Structure (SMILES),inhibition in vivo at 100 mg/kg (Rattus norvegicus [1]),inhibition in vivo at 100 mg/kg (Rattus norvegicus [2]),inhibition in vivo at 100 mg/kg (Rattus norvegicus [3]),UI (Rattus norvegicus [4])
Cc1cc(-c2ccc(Cl)cc2)n(Cc2n[nH]c(=S)o2)n1,31.2%,15.4%,39.2%,–
Cc1cc(-c2ccc(Cl)cc2)n(-c2ccc(S(N)(=O)=O)cc2)n1,49.8%,37.2%,62.5%,5.2
Cc1cc(-c2ccc(Cl)cc2)n(-c2ccc(S(=O)(=O)Nc3nccs3)cc2)n1,44.3%,34.1%,62%,–
Cc1cc(C)n(Cc2n[nH]c(=S)o2)n1,21.5%,14.4%,34.9%,–
Cc1cc(-c2ccccc2)n(Cc2n[nH]c(=S)o2)n1,34.2%,26.3%,48.7%,–
Cc1cccc(NC(=S)NNC(=O)Cn2nc(C)cc2C)c1,22.9%,12.3%,40.8%,–
COc1ccc(NC(=S)NNC(=O)Cn2nc(C)cc2C)cc1,41.4%,30.3%,46.4%,–
Cc1cc(C)n(CC(=O)NNC(=S)Nc2ccc([N+](=O)[O-])cc2)n1,44.4%,36.1%,62.7%,18.6
Cc1cccc(-n2c(Cn3nc(C)cc3C)n[nH]c2=S)c1,22.7%,13.2%,33.4%,–
Cc1cc(C)n(Cc2n[nH]c(=S)n2-c2ccc([N+](=O)[O-])cc2)n1,27.1%,16.6%,36.4%,–
Cc1cc(C)n(Cc2nnc(Nc3ccc([N+](=O)[O-])cc3)s2)n1,50%,37.5%,64.9%,15.6
CCCNc1nnc(Cn2nc(C)cc2-c2ccccc2)s1,42.2%,26.9%,54.1%,–
Cc1cc(-c2ccc(Cl)cc2)n(Cc2nnc(Nc3ccc([N+](=O)[O-])cc3)s2)n1,45%,32.8%,61.1%,–
Cc1ccc(-c2cc(C(F)(F)F)nn2-c2ccc(S(N)(=O)=O)cc2)cc1 [CELECOXIB],45.8%,31.4%,63.8%,–
COc1ccc2c(c1)c(CC(=O)O)c(C)n2C(=O)c1ccc(Cl)cc1 [INDOMETHACIN],40.1%,31.5%,60.8%,20.4
